The target of data set [1] is Interleukin-1 receptor-associated kinase 1 (Homo sapiens) (UniProt P51617). Description: Inhibition of IRAK1 (unknown origin) at 1 uM by ADP-Glo kinase assay relative to control.
A short description of data set [2]: Ratio of total drug brain AUC to total plasma AUC in C57BL6 mouse brain at 0.5 mg/kg, iv single administration measured upto 24 hrs by LC-MS/MS analysis. Format: ADME, organism-based.
Data set [3] in a line: AUC in C57BL6 mouse brain assessed as free brain drug at 0.5 mg/kg, iv single administration measured upto 24 hrs by LC-MS/MS analysis. Format: ADME, organism-based. The arrangement: dose 0.5 mg/kg, time < 24 hrs, route iv. The conditions noted are these: in vivo.
Data set [4] can be described thus: Initial plasma concentration in C57BL6 mouse plasma at 0.5 mg/kg, iv single administration measured upto 24 hrs by LC-MS/MS analysis. Format: ADME, organism-based.
In data set [5] the target is Tyrosine-protein kinase Lck (Homo sapiens) (UniProt P06239). Nature of the data set: Inhibition of LCK (unknown origin) at 1 uM by ADP-Glo kinase assay relative to control. Background: ADP-Glo turns the ADP formed in a reaction into a luminescent signal.
Chain of Tyrosine-protein kinase Lck (Homo sapiens) (P06239 2-509 limits assumed): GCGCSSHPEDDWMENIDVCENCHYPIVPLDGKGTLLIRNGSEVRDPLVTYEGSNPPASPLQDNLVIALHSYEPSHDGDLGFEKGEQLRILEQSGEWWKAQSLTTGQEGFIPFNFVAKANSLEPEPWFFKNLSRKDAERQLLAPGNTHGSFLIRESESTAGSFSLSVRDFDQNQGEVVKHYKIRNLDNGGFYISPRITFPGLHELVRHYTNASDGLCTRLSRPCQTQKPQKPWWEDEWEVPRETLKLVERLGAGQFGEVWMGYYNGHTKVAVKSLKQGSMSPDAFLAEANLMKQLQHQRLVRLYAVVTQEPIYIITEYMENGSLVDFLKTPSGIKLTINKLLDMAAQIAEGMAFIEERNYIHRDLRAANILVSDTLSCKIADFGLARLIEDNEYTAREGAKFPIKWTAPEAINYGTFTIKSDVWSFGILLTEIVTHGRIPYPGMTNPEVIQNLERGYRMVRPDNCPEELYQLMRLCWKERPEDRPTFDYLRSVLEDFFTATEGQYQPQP
A short description of data set [6]: Metabolic stability in human liver microsomes assessed as stability measured after 30 mins by LC-MS/MS analysis. Format: ADME, Microsome. As to conditions: read-out: Drug metabolism; call rule not given here. In general terms: Liver microsomes are a subcellular fraction often used to study metabolism.
Data set [7] has as its target Leucine-rich repeat serine/threonine-protein kinase 2 (Homo sapiens) (UniProt Q5S007). Description: Inhibition of LRRK2 (unknown origin) at 1 uM by ADP-Glo kinase assay relative to control.
A short description of data set [8]: Plasma protein binding in CD-1 ISG mouse plasma measured after 4 hrs by equilibrium dialysis based LC-MS/MS analysis. As to conditions: read-out: PPB (converted). It counts as ADME, cell-free.
Data set [9] can be described thus: Half life in C57BL6 mouse brain at 0.5 mg/kg, iv single administration measured upto 24 hrs by LC-MS/MS analysis. Format: ADME, organism-based.
The nature of data set [10]: Ratio of free drug brain AUC to free plasma AUC in C57BL6 mouse brain at 0.5 mg/kg, iv single administration measured upto 24 hrs by LC-MS/MS analysis. Format: ADME, organism-based. As to conditions: read-out: K(p,uu,brain).
The target of data set [11] is Receptor-interacting serine/threonine-protein kinase 2 (Homo sapiens) (UniProt O43353). Description: Inhibition of RIPK2 (unknown origin) at 1 uM by ADP-Glo kinase assay relative to control.
Chain of Receptor-interacting serine/threonine-protein kinase 2 (Homo sapiens) (O43353 whole entry): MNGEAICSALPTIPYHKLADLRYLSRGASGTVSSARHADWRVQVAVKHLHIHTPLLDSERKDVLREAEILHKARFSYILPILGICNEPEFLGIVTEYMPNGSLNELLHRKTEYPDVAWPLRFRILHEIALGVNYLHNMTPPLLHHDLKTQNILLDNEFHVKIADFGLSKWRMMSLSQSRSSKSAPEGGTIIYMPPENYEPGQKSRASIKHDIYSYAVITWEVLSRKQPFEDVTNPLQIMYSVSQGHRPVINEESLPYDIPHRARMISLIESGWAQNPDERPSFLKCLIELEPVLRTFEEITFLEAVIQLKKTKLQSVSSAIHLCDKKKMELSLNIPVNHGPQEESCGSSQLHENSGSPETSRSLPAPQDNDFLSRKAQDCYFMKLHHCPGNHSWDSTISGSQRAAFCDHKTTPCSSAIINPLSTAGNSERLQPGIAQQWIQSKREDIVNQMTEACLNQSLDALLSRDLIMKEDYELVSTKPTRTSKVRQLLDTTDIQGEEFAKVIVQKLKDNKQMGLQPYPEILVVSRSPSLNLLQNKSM
Data set [12] addresses T1, Interleukin-1 receptor-associated kinase 3 (Homo sapiens) (UniProt Q9Y616).
T1 sequence (whole entry): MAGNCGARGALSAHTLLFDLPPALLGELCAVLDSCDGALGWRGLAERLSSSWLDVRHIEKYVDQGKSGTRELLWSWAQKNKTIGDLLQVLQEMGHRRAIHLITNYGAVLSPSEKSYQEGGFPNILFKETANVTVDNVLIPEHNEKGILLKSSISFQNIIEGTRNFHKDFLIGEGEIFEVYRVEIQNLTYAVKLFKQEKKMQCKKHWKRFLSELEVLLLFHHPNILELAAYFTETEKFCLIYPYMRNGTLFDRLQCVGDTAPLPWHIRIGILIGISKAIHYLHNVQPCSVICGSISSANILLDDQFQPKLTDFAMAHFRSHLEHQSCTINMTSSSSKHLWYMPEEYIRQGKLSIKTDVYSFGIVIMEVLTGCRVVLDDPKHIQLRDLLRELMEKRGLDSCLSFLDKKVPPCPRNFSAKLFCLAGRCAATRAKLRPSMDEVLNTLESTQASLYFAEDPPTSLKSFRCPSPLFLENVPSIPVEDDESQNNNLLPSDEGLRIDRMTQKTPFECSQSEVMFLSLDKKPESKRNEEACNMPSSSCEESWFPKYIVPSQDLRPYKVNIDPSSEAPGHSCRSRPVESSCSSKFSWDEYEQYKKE
Nature of the data set: Inhibition of IRAK3 (unknown origin) at 1 uM by ADP-Glo kinase assay relative to control.

Data set [13] can be described thus: AUC in C57BL6 mouse brain at 0.5 mg/kg, iv single administration measured upto 24 hrs by LC-MS/MS analysis. It counts as ADME, organism-based. Also noted: dose 0.5 mg/kg, time < 24 hrs, route iv.
A short description of data set [14]: AUC (0 to last) in C57BL6 mouse brain at 0.5 mg/kg, iv single administration measured upto 24 hrs by LC-MS/MS analysis. It counts as ADME, organism-based. The arrangement: time < 24 hrs, dose 0.5 mg/kg, route iv.
Data set [15] can be described thus: In vivo stability in iv dosed Hsd:ICR (CD-1) mouse brain assessed as stability measured after 5 mins by radio-HPLC analysis. Format: ADME, organism-based. As to conditions: read-out: Stability.
Data set [16] is described as follows: Ex vivo biodistribution in Hsd:ICR (CD-1) mouse assessed as brain uptake at 12.5 to 26.9 MBq, iv measured for 5 to 90 mins by gamma counter analysis. It counts as ADME, organism-based. The conditions noted are these: dose lower 12.5 MBq, time lower 5 min, dose upper 26.9 MBq, time upper 90 min.
Data set [17] is described as follows: In vivo stability in iv dosed Hsd:ICR (CD-1) mouse plasma assessed as stability measured after 5 mins by radio-HPLC analysis. Format: ADME, organism-based. The conditions noted are these: for remaining at 5 min: Hsd:ICR (CD-1), plasma, read-out: Stability.
The nature of data set [18]: In vivo stability in iv dosed Hsd:ICR (CD-1) mouse plasma assessed as stability measured after 90 mins by radio-HPLC analysis. It counts as ADME, organism-based. As to conditions: for Stability: in vivo, iv.
Data set [19] in a line: Ex vivo biodistribution in Hsd:ICR (CD-1) mouse assessed as brain uptake at 12.5 to 26.9 MBq, iv measured for 5 mins by gamma counter analysis. As to conditions: dose 12.5-26.9 MBq. Format: ADME, organism-based.
Data set [20] can be described thus: In vivo stability in iv dosed Hsd:ICR (CD-1) mouse brain assessed as stability measured after 90 mins by radio-HPLC analysis. Format: ADME, organism-based. The conditions noted are these: read-out: Stability.
The nature of data set [21]: In vivo stability in iv dosed Hsd:ICR (CD-1) mouse plasma assessed as stability measured after 45 mins by radio-HPLC analysis. It counts as ADME, organism-based. As to conditions: for remaining at 0.75 h: Hsd:ICR (CD-1), plasma, read-out: Stability.
Data set [22] is described as follows: Ex vivo biodistribution in Hsd:ICR (CD-1) mouse assessed as blood uptake at 12.5 to 26.9 MBq, iv measured after 90 mins by gamma counter analysis. Format: ADME, organism-based. As to conditions: dose 12.5-26.9 MBq.
Data set [23] is described as follows: Ex vivo biodistribution in Hsd:ICR (CD-1) mouse assessed as brain uptake at 12.5 to 26.9 MBq, iv measured for 5 to 90 mins in presence of imidazole [1,2-alpha]pyridine by gamma counter analysis. It counts as ADME, organism-based. As to conditions: dose lower 12.5 MBq, time lower 5 min, dose upper 26.9 MBq, time upper 90 min.
Data set [24] can be described thus: Initial plasma concentration in C57BL6 mouse plasma at 1 mg/kg, iv single administration measured upto 24 hrs by LC-MS/MS analysis. It counts as ADME, organism-based.
Data set [25] is described as follows: Half life in C57BL6 mouse brain at 1 mg/kg, iv single administration measured upto 24 hrs by LC-MS/MS analysis. It counts as ADME, organism-based.
The nature of data set [26]: Ratio of total drug brain AUC to total plasma AUC in C57BL6 mouse brain at 1 mg/kg, iv single administration measured upto 24 hrs by LC-MS/MS analysis. It counts as ADME, organism-based.
The nature of data set [27]: AUC (0 to last) in C57BL6 mouse brain at 1 mg/kg, iv single administration measured upto 24 hrs by LC-MS/MS analysis. Format: ADME, organism-based. Also noted: time < 24 hrs, dose 1 mg/kg, route iv.
Data set [28] can be described thus: AUC in C57BL6 mouse brain at 1 mg/kg, iv single administration measured upto 24 hrs by LC-MS/MS analysis. It counts as ADME, organism-based. Also noted: time < 24 hrs, dose 1 mg/kg, route iv.
The nature of data set [29]: AUC in C57BL6 mouse brain assessed as free brain drug at 1 mg/kg, iv single administration measured upto 24 hrs by LC-MS/MS analysis. As to conditions: in vivo. It counts as ADME, organism-based. The arrangement: time < 24 hrs, dose 1 mg/kg, route iv.
Data set [30] in a line: Biodistribution in Hsd:ICR (CD-1) mouse assessed as brain uptake at 12.5 to 26.9 MBq, iv in presence of imidazole [1,2-alpha]pyridine measured at early time points by PET imaging analysis. It counts as ADME, organism-based. The conditions noted are these: in vivo, dose 12.5-26.9 MBq.
Data set [31] is described as follows: Ex vivo biodistribution in Hsd:ICR (CD-1) mouse assessed as thigh bone uptake at 12.5 to 26.9 MBq, iv measured after 90 mins by gamma counter analysis. The conditions noted are these: dose 12.5-26.9 MBq. It counts as ADME, organism-based.
A short description of data set [32]: Ex vivo biodistribution in Hsd:ICR (CD-1) mouse assessed as thigh bone uptake at 12.5 to 26.9 MBq, iv measured for 5 mins by gamma counter analysis. It counts as ADME, organism-based. The conditions noted are these: dose 12.5-26.9 MBq.
Data set [33] can be described thus: In vivo stability in iv dosed Hsd:ICR (CD-1) mouse brain assessed as stability measured after 5 to 90 mins by radio-HPLC analysis. It counts as ADME, organism-based. The conditions noted are these: time 5-90 min.

Each structure is given as a SMILES string.

Chain of Interleukin-1 receptor-associated kinase 1 (Homo sapiens) (P51617 whole entry, looked up): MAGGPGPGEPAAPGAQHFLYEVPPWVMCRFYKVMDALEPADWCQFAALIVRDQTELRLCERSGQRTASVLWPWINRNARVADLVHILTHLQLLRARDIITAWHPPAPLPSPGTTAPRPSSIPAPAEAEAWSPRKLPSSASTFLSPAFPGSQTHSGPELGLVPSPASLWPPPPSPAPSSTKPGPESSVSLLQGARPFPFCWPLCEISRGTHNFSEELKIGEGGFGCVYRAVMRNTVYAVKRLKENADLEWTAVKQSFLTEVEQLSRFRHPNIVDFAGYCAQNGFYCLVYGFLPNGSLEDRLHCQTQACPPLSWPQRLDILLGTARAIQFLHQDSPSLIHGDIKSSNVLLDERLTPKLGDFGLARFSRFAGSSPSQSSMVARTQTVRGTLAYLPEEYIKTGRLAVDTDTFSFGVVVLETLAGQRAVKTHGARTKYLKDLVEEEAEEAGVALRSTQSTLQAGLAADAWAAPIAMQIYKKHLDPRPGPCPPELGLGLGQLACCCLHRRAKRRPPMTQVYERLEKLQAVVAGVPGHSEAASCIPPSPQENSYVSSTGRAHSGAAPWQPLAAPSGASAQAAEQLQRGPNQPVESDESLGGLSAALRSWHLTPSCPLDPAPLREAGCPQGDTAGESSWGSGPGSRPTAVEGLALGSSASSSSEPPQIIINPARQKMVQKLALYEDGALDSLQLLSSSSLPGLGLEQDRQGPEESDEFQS
Chain of Leucine-rich repeat serine/threonine-protein kinase 2 (Homo sapiens) (Q5S007 whole entry): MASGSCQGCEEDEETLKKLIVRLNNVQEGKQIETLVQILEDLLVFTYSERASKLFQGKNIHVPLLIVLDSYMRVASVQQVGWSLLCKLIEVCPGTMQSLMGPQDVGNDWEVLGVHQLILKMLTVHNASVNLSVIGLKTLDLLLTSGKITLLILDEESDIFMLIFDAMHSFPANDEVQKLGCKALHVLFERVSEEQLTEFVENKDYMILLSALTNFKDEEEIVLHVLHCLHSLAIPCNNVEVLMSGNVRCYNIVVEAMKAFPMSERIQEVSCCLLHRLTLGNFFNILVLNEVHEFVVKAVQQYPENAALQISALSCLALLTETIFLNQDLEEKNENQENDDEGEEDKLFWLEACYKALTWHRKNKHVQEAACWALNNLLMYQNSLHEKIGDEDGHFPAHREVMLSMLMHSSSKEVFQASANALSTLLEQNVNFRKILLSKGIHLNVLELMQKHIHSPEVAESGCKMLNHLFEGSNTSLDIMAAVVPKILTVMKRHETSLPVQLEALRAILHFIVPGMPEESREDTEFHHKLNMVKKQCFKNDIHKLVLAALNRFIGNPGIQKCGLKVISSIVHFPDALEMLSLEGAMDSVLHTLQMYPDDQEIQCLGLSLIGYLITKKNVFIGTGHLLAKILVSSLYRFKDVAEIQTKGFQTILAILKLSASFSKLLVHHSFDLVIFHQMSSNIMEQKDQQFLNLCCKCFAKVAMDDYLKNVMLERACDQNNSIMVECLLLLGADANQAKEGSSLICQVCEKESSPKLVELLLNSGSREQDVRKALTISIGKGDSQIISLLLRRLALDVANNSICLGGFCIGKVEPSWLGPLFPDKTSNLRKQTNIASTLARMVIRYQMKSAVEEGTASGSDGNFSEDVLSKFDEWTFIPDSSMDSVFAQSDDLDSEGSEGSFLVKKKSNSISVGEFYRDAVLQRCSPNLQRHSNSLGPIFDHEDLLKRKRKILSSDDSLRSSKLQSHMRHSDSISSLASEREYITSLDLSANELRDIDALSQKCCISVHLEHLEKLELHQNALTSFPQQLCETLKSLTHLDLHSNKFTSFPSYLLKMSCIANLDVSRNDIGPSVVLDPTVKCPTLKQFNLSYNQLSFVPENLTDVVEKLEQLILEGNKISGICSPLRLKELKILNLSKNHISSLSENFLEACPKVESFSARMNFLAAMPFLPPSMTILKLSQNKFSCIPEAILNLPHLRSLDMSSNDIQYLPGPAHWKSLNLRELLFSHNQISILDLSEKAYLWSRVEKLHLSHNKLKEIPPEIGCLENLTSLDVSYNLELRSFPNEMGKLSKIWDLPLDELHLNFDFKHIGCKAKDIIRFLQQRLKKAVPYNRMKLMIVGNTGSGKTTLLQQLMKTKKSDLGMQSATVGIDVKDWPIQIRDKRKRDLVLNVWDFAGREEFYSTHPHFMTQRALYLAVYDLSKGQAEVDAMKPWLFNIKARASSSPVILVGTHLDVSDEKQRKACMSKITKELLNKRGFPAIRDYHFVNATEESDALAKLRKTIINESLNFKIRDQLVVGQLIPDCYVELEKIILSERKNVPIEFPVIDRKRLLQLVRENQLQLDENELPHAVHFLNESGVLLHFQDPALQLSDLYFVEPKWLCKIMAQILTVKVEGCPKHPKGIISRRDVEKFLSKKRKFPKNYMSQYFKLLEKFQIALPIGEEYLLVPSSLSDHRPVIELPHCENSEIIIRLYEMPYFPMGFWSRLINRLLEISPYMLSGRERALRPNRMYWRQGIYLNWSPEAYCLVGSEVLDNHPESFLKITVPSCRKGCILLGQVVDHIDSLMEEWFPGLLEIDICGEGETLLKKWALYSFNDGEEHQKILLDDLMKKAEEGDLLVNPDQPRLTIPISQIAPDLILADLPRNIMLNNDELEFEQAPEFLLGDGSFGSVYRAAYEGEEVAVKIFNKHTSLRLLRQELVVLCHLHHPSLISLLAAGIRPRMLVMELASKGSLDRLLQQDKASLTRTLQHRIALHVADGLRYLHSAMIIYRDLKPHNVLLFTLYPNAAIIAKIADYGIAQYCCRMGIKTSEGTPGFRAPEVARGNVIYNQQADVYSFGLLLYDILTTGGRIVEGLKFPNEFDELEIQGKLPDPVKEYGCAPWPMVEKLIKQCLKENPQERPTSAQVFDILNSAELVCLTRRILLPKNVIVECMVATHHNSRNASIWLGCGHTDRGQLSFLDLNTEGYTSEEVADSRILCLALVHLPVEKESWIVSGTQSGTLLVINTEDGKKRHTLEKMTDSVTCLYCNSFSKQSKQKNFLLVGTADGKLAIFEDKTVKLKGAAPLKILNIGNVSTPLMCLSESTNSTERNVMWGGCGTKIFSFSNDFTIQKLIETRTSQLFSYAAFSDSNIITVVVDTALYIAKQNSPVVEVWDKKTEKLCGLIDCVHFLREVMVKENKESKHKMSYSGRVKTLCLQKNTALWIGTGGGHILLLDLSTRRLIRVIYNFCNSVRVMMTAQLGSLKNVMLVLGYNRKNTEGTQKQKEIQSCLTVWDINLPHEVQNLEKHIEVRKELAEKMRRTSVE

`Cc1cc(F)ncc1-c1ccc2nc(NC(=O)[C@@H]3C[C@@H]3F)sc2c1`: the inhibition in data set [1], in data set [5], in data set [7], in data set [11] and in data set [12] was greater than 80% throughout. Besides, in data set [2], the Kp (in general, the ratio of the level in a tissue or fluid to that in plasma or blood) at 24 h was found to be 0.49. The area under the curve (AUC) (commonly the area under the concentration-time curve, a measure of exposure) in data set [3] is 10 ng·h/mL. The C0 at 24 h in [4] is 1580 ng/mL. Besides, the remaining at 0.5 h in [6] was less than 30%. In addition, in data set [8], the fraction unbound at 4 h was 0.0192. The half-life (commonly the time in which the quantity being followed falls by half) in [9] is 540 min. Moreover, the Kp uu at 24 h in data set [10] is 0.15. The same compound registered an AUC at 24 h in data set [13] of 1670 ng·h/mL. For the same compound, in [14], the AUC(0-t) (as a rule, exposure summed from dosing to a finite time, without extrapolation to infinity) at 24 h is 3380 ng·h/mL.
For the compound `O=C(Nc1cn2cc(-c3cccc(F)c3OCC[18F])ccc2n1)[C@@H]1C[C@@H]1F`, the results for the remaining at 5 min in [15] and in data set [17] were 88% and 64%, respectively. The Drug uptake entry in data set [16] is recorded as “Active”; in data set [19], 1.1 % ID/g; in data set [22] it was 0.2 % ID/g; in data set [23], “Active”. Moreover, the Stability entry in [18] was “Unstable”. Also, the remaining at […] in [20] was 33%. Also, the remaining at 0.75 h in data set [21] was 18%.
Take `O=C(Nc1cn2cc(-c3cccc(F)c3OCCF)ccc2n1)[C@@H]1C[C@@H]1F`: the C0 at 24 h in [24] was determined as 536 ng/mL. Moreover, the half-life in data set [25] was 30 min. Further, in data set [26], the Kp at 24 h amounted to 0.21. Also, the remaining at 0.5 h in data set [6] is less than 30%. Also, the fraction unbound at 4 h in [8] is 0.0692. In [27], this compound showed an AUC(0-t) at 24 h of 536 ng·h/mL. Also, the AUC at 24 h in data set [28] worked out at 112 ng·h/mL. Also, the AUC in data set [29] is 4 ng·h/mL.
With `O=C(Nc1cn2cc(-c3ccccc3CC[18F])ccc2n1)[C@@H]1C[C@@H]1F`, the remaining at 5 min in data set [15] was found to be 93%; in data set [17], 72%. Besides, the Drug uptake entry in data set [30] was “Active”; in data set [16] it was “Active”; in data set [31], 2.7 % ID/g; in data set [19], 3.1 % ID/g; in data set [22], 0.3 % ID/g; in data set [23] it was “Active”. In addition, the Drug uptake in data set [32] turned out to be 1.6 % ID/g. In data set [18], the Stability entry was “Unstable”. In addition, the remaining at […] in data set [20] is 8.5%. Besides, in [21], the remaining at 0.75 h was found to be 13%.
Regarding `O=C(Nc1cn2cc(-c3ccccc3CCF)ccc2n1)[C@@H]1C[C@@H]1F`, the C0 at 24 h in data set [24] stood at 597 ng/mL. Moreover, the half-life in [25] is 12 min. Besides, the Kp at 24 h in data set [26] came out at 0.31. Further, in data set [6], the remaining at 0.5 h was less than 30%. Further, the fraction unbound at 4 h in [8] is 0.0734. The AUC(0-t) at 24 h in data set [27] amounted to 597 ng·h/mL. Besides, the AUC at 24 h in data set [28] was 182 ng·h/mL. Further, the AUC in [29] turned out to be 5 ng·h/mL.
For `Cc1cc([18F])ncc1-c1ccc2nc(NC(=O)[C@@H]3C[C@@H]3F)sc2c1`, the Stability in [33] is on record as 99.42%; in data set [17] (in vivo, iv, 5 min), “Stable”; in [21] (in vivo, iv, 0.75 h) it was “Stable”. In addition, the Drug uptake entry in data set [16] is listed as “Active”; in [19], 4.2 % ID/g; in data set [22], 1.2 % ID/g; in data set [23] it was “Active”. Besides, in data set [18] (Hsd:ICR (CD-1), plasma, read-out: Stability), the remaining at […] is 91%.
